# Legend:
# pERK level in H358 cells = assay: pERK and ERK protein content assay in H358 cells (ELISA); type: cell-based; settings: Homo sapiens, NCI-H358, pERK/ERK ratio vs DMSO group, compound 1 μM, 24 h, read-out: Inhibition rate (%)
# Method: H358 cells were seeded in a 24-well plate. After one day of growth, a test compound (at a concentration of 1 μM) was added. After 24 h of action of the compound, the cells were lysed, and the cell lysate was transferred to a 96-well ELISA plate. The levels of pERK and ERK in the lysate were measured using an ELISA kit (abcam 176660). The ratio of pERK to ERK was calculated and compared with that of the DMSO group, and the percentage of inhibition of pERK activity by the compound was calculated.
# H358 cells = assay: Antiproliferative activity against H358 cells (Cell Titer Glow, ultra-low attachment plate); type: cell-based; settings: Homo sapiens, NCI-H358, 72 h, three days after addition of compound
# Method: 2500 H358 cells were seeded in a 96-well ultra-low attachment plate (corning, 7007). After one day of growth, a serially diluted compound (a maximum concentration of 5 μM, 5-fold dilution, a total of five doses) was added. Three days after the addition of the compound, Cell Titer Glow (Promega, G9681) was added to evaluate pellet growth, and the IC50 value was calculated.
IC50 (H358 cells) [nM],Compound,inhibition at 1 µM (pERK level in H358 cells) [%]
< 300,C=CC(=O)N1CC2(CCN(c3nc(N4CC(OCC5COC5)C4)nc4c(OCC(F)(F)F)c(-c5c(C)ccc6[nH]ncc56)c(C5CC5)cc34)CC2)C1 [Compound 18],> 90
300 to 1000,C=CC(=O)N1CC2(CCN(c3nc(N4CC(n5cccc5)C4)nc4c(OCC(F)(F)F)c(-c5c(C)ccc6[nH]ncc56)c(C5CC5)cc34)CC2)C1 [Compound 39],50 to 90
< 300,C=CC(=O)N1CC2(CCN(c3nc(N4CC(CN5CCCC5)C4)nc4c(OCC(F)(F)F)c(-c5c(C)ccc6[nH]ncc56)c(C5CC5)cc34)CC2)C1 [Compound 7],> 90
> 1000,C=CC(=O)N1CC2(CCN(c3nc(N4CC(n5cccn5)C4)nc4c(OCC(F)(F)F)c(-c5c(C)ccc6[nH]ncc56)c(C5CC5)cc34)CC2)C1 [Compound 40],50 to 90
< 300,C=CC(=O)N1CC2(CCN(c3nc(N4CC(N5CC[C@H](O)C5)C4)nc4c(OCC(F)(F)F)c(-c5c(C)ccc6[nH]ncc56)c(C5CC5)cc34)CC2)C1 [Compound 45],> 90
< 300,C=CC(=O)N1CC2(CCN(c3nc(N4CC(O)C4)nc4c(OCC(F)(F)F)c(-c5c(C)ccc6[nH]ncc56)c(C5CC5)cc34)CC2)C1 [Compound 2],> 90
< 300,C=CC(=O)N1CC2(CCN(c3nc(N4CC(CN(C)CCO)C4)nc4c(OCC(F)(F)F)c(-c5c(C)ccc6[nH]ncc56)c(C5CC5)cc34)CC2)C1 [Compound 4],> 90
< 300,C=CC(=O)N1CC2(CCN(c3nc(N4CC(C)(N(C)C)C4)nc4c(OCC(F)(F)F)c(-c5c(C)ccc6[nH]ncc56)c(C5CC5)cc34)CC2)C1 [Compound 59],> 90
300 to 1000,C=CC(=O)N1CC2(CCN(c3nc(N4CC5(CC5)C4)nc4c(OCC(F)(F)F)c(-c5c(C)ccc6[nH]ncc56)c(C5CC5)cc34)CC2)C1 [Compound 65],50 to 90
300 to 1000,C=CC(=O)N1CC2(CCN(c3nc(N4CC5(CCC5)C4)nc4c(OCC(F)(F)F)c(-c5c(C)ccc6[nH]ncc56)c(C5CC5)cc34)CC2)C1 [Compound 66],50 to 90
300 to 1000,C=CC(=O)N1CC2(CCN(c3nc(N4CC(N(C)CC#N)C4)nc4c(OCC(F)(F)F)c(-c5c(C)ccc6[nH]ncc56)c(C5CC5)cc34)CC2)C1 [Compound 20],50 to 90
< 300,C=CC(=O)N1CC2(CCN(c3nc(N4CC(COC5CN(C)C5)C4)nc4c(OCC(F)(F)F)c(-c5c(C)ccc6[nH]ncc56)c(C5CC5)cc34)CC2)C1 [Compound 11],> 90

# The remaining lines, values behind:
Compound,IC50 (H358 cells) [nM],inhibition at 1 µM (pERK level in H358 cells) [%]
C=CC(=O)N1CC2(CCN(c3nc(O[C@H]4C[C@H](N5CCC(F)(F)C5)C4)nc4c(OCC(F)(F)F)c(-c5c(C)ccc6[nH]ncc56)c(C5CC5)cc34)CC2)C1 [Compound 92],> 1000,50 to 90
C=CC(=O)N1CC2(CCN(c3nc(N4CC5(CC(=C)CN5CC)C4)nc4c(OCC(F)(F)F)c(-c5c(C)ccc6[nH]ncc56)c(C5CC5)cc34)CC2)C1 [Compound 126],< 300,> 90
C=CC(=O)N1CC2(CCN(c3nc(N4CC(CN5CCOCC5)C4)nc4c(OCC(F)(F)F)c(-c5c(C)ccc6[nH]ncc56)c(C5CC5)cc34)CC2)C1 [Compound 8],300 to 1000,50 to 90
C=CC(=O)N1CC2(CCN(c3nc(N4CC5(CCCN5CC)C4)nc4c(OCC(F)(F)F)c(-c5c(C)ccc6[nH]ncc56)c(C5CC5)cc34)CC2)C1 [Compound 116],< 300,> 90
C=CC(=O)N1CC2(CCN(c3nc(O[C@H]4C[C@H](N5CC6(CCC6)C5)C4)nc4c(OCC(F)(F)F)c(-c5c(C)ccc6[nH]ncc56)c(C5CC5)cc34)CC2)C1 [Compound 96],300 to 1000,> 90
C=CC(=O)N1CC2(CCN(c3nc(N4CC(CN(C)CCOC)C4)nc4c(OCC(F)(F)F)c(-c5c(C)ccc6[nH]ncc56)c(C5CC5)cc34)CC2)C1 [Compound 5],< 300,> 90
C=CC(=O)N1CC2(CCN(c3nc(N4CC5(CCN5CCOC)C4)nc4c(OCC(F)(F)F)c(-c5c(C)ccc6[nH]ncc56)c(C5CC5)cc34)CC2)C1 [Compound 72],< 300,> 90
C=CC(=O)N1CC2(CCN(c3nc(N4CC(N5CCC6(CC5)CC6)C4)nc4c(OCC(F)(F)F)c(-c5c(C)ccc6[nH]ncc56)c(C5CC5)cc34)CC2)C1 [Compound 36],300 to 1000,50 to 90
C=CC(=O)N1CC2(CCN(c3nc(N4CC5(CC(=C)CN5C)C4)nc4c(OCC(F)(F)F)c(-c5c(C)ccc6[nH]ncc56)c(C5CC5)cc34)CC2)C1 [Compound 125],< 300,> 90
C=CC(=O)N1CC2(CCN(c3nc(N4CC(C(=O)N5CCN(C)CC5)C4)nc4c(OCC(F)(F)F)c(-c5c(C)ccc6[nH]ncc56)c(C5CC5)cc34)CC2)C1 [Compound 46],< 300,> 90
C=CC(=O)N1CC2(CCN(c3nc(N4CC(N5CC6(CC6)C5)C4)nc4c(OCC(F)(F)F)c(-c5c(C)ccc6cn[nH]c56)c(C5CC5)cc34)CC2)C1 [Compound 109],< 300,> 90
C=CC(=O)N1CC2(CCN(c3nc(N4CC(N5CC6(CC6)C5)C4)nc4c(OCC(F)F)c(-c5c(C)ccc6[nH]ncc56)c(C5CC5)cc34)CC2)C1 [Compound 98],< 300,> 90
C=CC(=O)N1CC2(CCN(c3nc(N4CC5(CCCN5C5CC5)C4)nc4c(OCC(F)(F)F)c(-c5c(C)ccc6[nH]ncc56)c(C5CC5)cc34)CC2)C1 [Compound 120],< 300,> 90
C=CC(=O)N1CC2(CCN(c3nc(N4CC5(CCCN5CCF)C4)nc4c(OCC(F)(F)F)c(-c5c(C)ccc6[nH]ncc56)c(C5CC5)cc34)CC2)C1 [Compound 118],< 300,> 90
C=CC(=O)N1CCC2(CC1)CN(c1nc(N3CC(N4CCC5(CC5)C4)C3)nc3c(OCC(F)(F)F)c(-c4c(C)ccc5[nH]ncc45)c(C4CC4)cc13)C2 [Compound 115],< 300,> 90
C=CC(=O)N1CC2(CCN(c3nc(N4CC5(CCN5C5COC5)C4)nc4c(OCC(F)(F)F)c(-c5c(C)ccc6[nH]ncc56)c(C5CC5)cc34)CC2)C1 [Compound 71],< 300,> 90
C=CC(=O)N1CC2(CCN(c3nc(N4CC5(CCCN5C(C)C)C4)nc4c(OCC(F)(F)F)c(-c5c(C)ccc6[nH]ncc56)c(C5CC5)cc34)CC2)C1 [Compound 117],< 300,> 90
C=CC(=O)N1CC2(CCN(c3nc(N4CC(S(=O)(=O)N5CC(N(C)C)C5)C4)nc4c(OCC(F)(F)F)c(-c5c(C)ccc6[nH]ncc56)c(C5CC5)cc34)CC2)C1 [Compound 50],300 to 1000,50 to 90
C=CC(=O)N1CC2(CCN(c3nc(O[C@H]4C[C@@H](N5CC6(CCC6)C5)C4)nc4c(OCC(F)(F)F)c(-c5c(C)ccc6[nH]ncc56)c(C5CC5)cc34)CC2)C1 [Compound 95],< 300,> 90
C=CC(=O)N1CC2(CCN(c3nc(N4CC(C(=O)N5CC(N(C)C)C5)C4)nc4c(OCC(F)(F)F)c(-c5c(C)ccc6[nH]ncc56)c(C5CC5)cc34)CC2)C1 [Compound 47],< 300,> 90
